Laboratory results from patent US20110105515A1, “TARGETING THE ONCOPROTEIN NUCLEOPHOSMIN” (President and Fellows of Harvard College, priority 2007, published 2011).

What was measured:
786-0 = 786-0 (Renal Cancer), 48 hours, SRB
OVCAR-3 = OVCAR-3 (Ovarian Cancer), 48 hours, SRB
NCI-H226 = NCI-H226 (Non-Small Cell Lung Cancer), 48 hours, SRB
UACC-257 = UACC-257 (Melanoma), 48 hours, SRB
COLO 205 = COLO 205 (Colon Cancer), 48 hours, SRB
SNB-19 = SNB-19 (CNS Cancer), 48 hours, SRB
HT29 = HT29 (Colon Cancer), 48 hours, SRB
MDA-MB-231/ATCC = MDA-MB-231/ATCC (Breast Cancer), 48 hours, SRB
A549/ATCC = A549/ATCC (Non-Small Cell Lung Cancer), 48 hours, SRB
MDA-MB-468 = MDA-MB-468 (Breast Cancer), 48 hours, SRB
EKVX = EKVX (Non-Small Cell Lung Cancer), 48 hours, SRB
UACC62 = UACC62 (Melanoma), 48 hours, SRB
MOLT-4 = MOLT-4 (Leukemia), 48 hours, SRB
A498 = A498 (Renal Cancer), 48 hours, SRB
HL-60(TB) = HL-60(TB) (Leukemia), 48 hours, SRB
SF-539 = SF-539 (CNS Cancer), 48 hours, SRB
IGROV1 = IGROV1 (Ovarian Cancer), 48 hours, SRB
HCT-116 = HCT-116 (Colon Cancer), 48 hours, SRB
SK-OV-3 = SK-OV-3 (Ovarian Cancer), 48 hours, SRB
OVCAR-8 = OVCAR-8 (Ovarian Cancer), 48 hours, SRB
HCT-15 = HCT-15 (Colon Cancer), 48 hours, SRB
MCF7 = MCF7 (Breast Cancer), 48 hours, SRB
RXF 393 = RXF 393 (Renal Cancer), 48 hours, SRB
M14 = M14 (Melanoma), 48 hours, SRB
U251 = U251 (CNS Cancer), 48 hours, SRB
SK-MEL-2 = SK-MEL-2 (Melanoma), 48 hours, SRB
KM12 = KM12 (Colon Cancer), 48 hours, SRB
NCI/ADR-RES = NCI/ADR-RES (Breast Cancer), 48 hours, SRB
NCI-H460 = NCI-H460 (Non-Small Cell Lung Cancer), 48 hours, SRB
BT-549 = BT-549 (Breast Cancer), 48 hours, SRB
NCI-H522 = NCI-H522 (Non-Small Cell Lung Cancer), 48 hours, SRB

## CN(C)c1cccc2c(S(=O)(=O)NCCCCCCCCCCOc3ccc4c(c3)[N+]([O-])=C3C4=C[C@@]45NC(=O)C6(CCCN6C4=O)CC5C3(C)C)cccc12 (stereo partly drawn) [Dansyl Analogue]
786-0
  GI50: 325 nM
  TGI: 1070 nM
786-0; read-out: LC50
  CC50: 5210 nM
OVCAR-3
  GI50: 201 nM
  TGI: 413 nM
OVCAR-3; read-out: LC50
  CC50: 849 nM
NCI-H226
  GI50: 1030 nM
  TGI: 3030 nM
NCI-H226; read-out: LC50
  CC50: 8930 nM
UACC-257
  GI50: 1020 nM
  TGI: 2810 nM
UACC-257; read-out: LC50
  CC50: 7740 nM
COLO 205
  GI50: 328 nM
  TGI: 1140 nM
COLO 205; read-out: LC50
  CC50: 3860 nM
SNB-19
  GI50: 359 nM
  TGI: 1440 nM
SNB-19; read-out: LC50
  CC50: 4100 nM
HT29
  GI50: 454 nM
  TGI: 1510 nM
HT29; read-out: LC50
  CC50: 3960 nM
MDA-MB-231/ATCC
  GI50: 242 nM
  TGI: 584 nM
MDA-MB-231/ATCC; read-out: LC50
  CC50: 40500 nM
A549/ATCC
  GI50: 2170 nM
  TGI: 5370 nM
A549/ATCC; read-out: LC50
  CC50: 18100 nM
MDA-MB-468
  GI50: 202 nM
  TGI: 436 nM
MDA-MB-468; read-out: LC50
  CC50: 941 nM
EKVX
  GI50: 540 nM
  TGI: 3630 nM
EKVX; read-out: LC50
  CC50: 37000 nM
UACC62
  GI50: 565 nM
  TGI: 1880 nM
UACC62; read-out: LC50
  CC50: 4880 nM
MOLT-4
  GI50: 276 nM
MOLT-4; read-out: LC50
  CC50: > 100000 nM
A498
  GI50: 250 nM
  TGI: 1010 nM
A498; read-out: LC50
  CC50: 4400 nM
HL-60(TB)
  GI50: 211 nM
  TGI: 1160 nM
HL-60(TB); read-out: LC50
  CC50: > 100000 nM
SF-539
  GI50: 215 nM
  TGI: 545 nM
SF-539; read-out: LC50
  CC50: 1890 nM
IGROV1
  GI50: 272 nM
  TGI: 695 nM
IGROV1; read-out: LC50
  CC50: 3390 nM
HCT-116
  GI50: 349 nM
  TGI: 1150 nM
HCT-116; read-out: LC50
  CC50: 5980 nM
SK-OV-3
  GI50: 1650 nM
  TGI: 4130 nM
SK-OV-3; read-out: LC50
  CC50: 10800 nM
OVCAR-8
  GI50: 759 nM
  TGI: 11000 nM
OVCAR-8; read-out: LC50
  CC50: > 100000 nM
HCT-15
  GI50: 484 nM
  TGI: 1750 nM
HCT-15; read-out: LC50
  CC50: 4180 nM
MCF7
  GI50: 232 nM
  TGI: 724 nM
MCF7; read-out: LC50
  CC50: 2610 nM
RXF 393
  GI50: 611 nM
  TGI: 5920 nM
RXF 393; read-out: LC50
  CC50: 44400 nM
M14
  GI50: 423 nM
  TGI: 2030 nM
M14; read-out: LC50
  CC50: 13600 nM
U251
  GI50: 175 nM
  TGI: 334 nM
U251; read-out: LC50
  CC50: 640 nM
SK-MEL-2
  GI50: 1070 nM
  TGI: 3230 nM
SK-MEL-2; read-out: LC50
  CC50: 9820 nM
KM12
  GI50: 1250 nM
  TGI: 2880 nM
KM12; read-out: LC50
  CC50: 6600 nM
NCI/ADR-RES
  GI50: 28200 nM
  TGI: >100000 nM
NCI/ADR-RES; read-out: LC50
  CC50: > 100000 nM
NCI-H460
  GI50: 700 nM
  TGI: 1990 nM
NCI-H460; read-out: LC50
  CC50: 4640 nM
BT-549
  GI50: 515 nM
  TGI: 6730 nM
BT-549; read-out: LC50
  CC50: > 100000 nM
NCI-H522
  GI50: 260 nM
  TGI: 857 nM
NCI-H522; read-out: LC50
  CC50: 8890 nM

## [2H]On1c2c(c3ccc4c(c31)C=CC(C)(C)O4)C(OC([2H])([2H])[2H])[C@@]13NC(=O)C4(CCCN4C1=O)CC3C2(C)C (stereo partly drawn) [Deuterated Methanol Adduct]
786-0
  TGI: 2460 nM
OVCAR-3
  TGI: 1810 nM
NCI-H226
  TGI: 1700 nM
UACC-257
  TGI: 1890 nM
COLO 205
  TGI: 1450 nM
SNB-19
  TGI: 2310 nM
HT29
  TGI: 3680 nM
MDA-MB-231/ATCC
  TGI: 1830 nM
A549/ATCC
  TGI: 2990 nM
MDA-MB-468
  TGI: 1780 nM
EKVX
  TGI: 1970 nM
UACC62
  TGI: 1920 nM
MOLT-4
  TGI: 1380 nM
A498
  TGI: 2220 nM
HL-60(TB)
  TGI: 1450 nM
SF-539
  TGI: 1460 nM
IGROV1
  TGI: 2040 nM
HCT-116
  TGI: 1970 nM
SK-OV-3
  TGI: 2160 nM
OVCAR-8
  TGI: 2170 nM
HCT-15
  TGI: 1770 nM
MCF7
  TGI: 1330 nM
RXF 393
  TGI: 625 nM
M14
  TGI: 2500 nM
U251
  TGI: 1370 nM
SK-MEL-2
  TGI: 2280 nM
KM12
  TGI: 2520 nM
NCI/ADR-RES
  TGI: 9950 nM
NCI-H460
  TGI: 3600 nM
BT-549
  TGI: 1990 nM
NCI-H522
  TGI: 1800 nM
